Results as given in paper PMC12505902, “Inhibitors of trehalose-6-phosphate synthase activity in fungal pathogens compromise thermal tolerance pathways” (mBio, 2025).

Molecular target: 6xHis-CnTps1 (Cryptococcus neoformans var. grubii, UniProt J9VJZ1)
Test: Spectrophotometric-coupled Tps1 enzyme activity assay
Format: biochemical, C. neoformans
Conditions: 1 mM 4456dh
Experimental: Fig 2 4456dh binds Tps1 and inhibits Tps1 activity. (A) Structure of 4456dh. (B and C) Glo-melt thermal shift assays reveal 4456dh destabilizes 6xHis-CaTps1 (B) and 6xHis-CnTps1 (C). The first derivative of the raw data was used to determine the melting temperature of 1 µM 6xHis-CaTps1 (B) and 1 µM 6xHis-CnTps1 (C) treated without (black) or with 2 mM 4456dh (red). […] The resulting dose-response curves were fitted to a one-site binding model to extract Kd values; the SD was calculated using the Kd values from each independent experiment (n = 3). (F) Tps1 enzyme activity assay with 5 µM 6xHis-CaTps1 (F) and 6xHis-CnTps1 (G) ±1 mM 4456dh. Error bars represent SE. […]
The ability of 4456dh to inhibit the activity of CaTps1 was tested using a spectrophotometric-coupled Tps1 enzyme assay, in which recombinant 6xHis-CaTps1 was incubated with 1 mM 4456dh at 4°C for 16 hours. […] Similarly, the effect of 1 mM 4456dh on 6xHis-CnTps1 activity was determined. […]
82 determined by SDS-PAGE analysis, were pooled and concentrated to 1 mg/mL for downstream […]
93 The data were acquired with MO.Control 1.5.3 (NanoTemper Technologies GmbH). Recorded
94 data were analyzed with MO.Affinity Analysis 2.2.7 (NanoTemper Technologies GmbH). […]
100 2X Glo-melt dye. Thermal denaturation was measured using an RT-PCR thermocycler (BioRad) […]
102 determined by identifying the inflection point of the derivative data. […]

Chain of 6xHis-CnTps1 (J9VJZ1 entry or part of it): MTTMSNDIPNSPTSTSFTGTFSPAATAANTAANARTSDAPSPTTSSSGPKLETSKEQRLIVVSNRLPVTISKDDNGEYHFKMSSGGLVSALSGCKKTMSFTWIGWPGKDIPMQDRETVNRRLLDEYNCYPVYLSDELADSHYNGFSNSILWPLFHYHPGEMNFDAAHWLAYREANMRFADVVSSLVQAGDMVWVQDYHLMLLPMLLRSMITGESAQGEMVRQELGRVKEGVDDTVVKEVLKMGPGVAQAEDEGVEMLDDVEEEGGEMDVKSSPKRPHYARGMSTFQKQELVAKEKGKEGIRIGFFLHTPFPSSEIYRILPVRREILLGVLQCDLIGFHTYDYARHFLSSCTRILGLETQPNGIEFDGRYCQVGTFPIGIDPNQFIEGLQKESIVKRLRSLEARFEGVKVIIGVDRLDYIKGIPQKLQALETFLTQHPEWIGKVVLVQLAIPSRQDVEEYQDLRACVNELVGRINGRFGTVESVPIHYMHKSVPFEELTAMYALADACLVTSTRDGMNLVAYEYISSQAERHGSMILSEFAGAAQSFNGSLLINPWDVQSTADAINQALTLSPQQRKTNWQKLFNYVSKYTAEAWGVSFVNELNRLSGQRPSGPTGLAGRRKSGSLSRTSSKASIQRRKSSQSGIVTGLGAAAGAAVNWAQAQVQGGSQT

Cn1cc(-c2csc(NC(=O)Cc3ccccn3)n2)cn1 [Compound 4456dh]
inhibition at 1000 µM: ~30%
